# Assay results from PubChem BioAssay AID256 (DTP/NCI, 2004).
# Several values for one entry are separate records, joined by “and”; a condition that tells them apart may be missing. Identical values can stand only once. Toxic doses and inconclusive results are not listed.
# System: CD2F1 mice, L1210 leukemia ip, survival T/C
# Assay: NCI In Vivo Anticancer Drug Screen. Data for tumor model L1210 Leukemia (intraperitoneal) in CD2F1 (CDF1) mice
# Conditions: higher = longer survival
# Procedure, shortened: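 Ratio T/C, where T is the treated-group value and C the vehicle-dosed control value, from mice implanted with a transplantable tumor.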
# [1] = endpoint: mean survival time, dose: 100.0 mg/kg/injection, schedule: Q04DX003 (ip), vehicle: saline with Tween-80
compound,measurement,setting,value
CC(NC(=O)CCl)C(=O)O (stereo unspecified),T/C,"endpoint: mean survival time, dose: 100.0 mg/kg/injection, schedule: Q04DX003 (ip), vehicle: saline",94 % of control
same,T/C,"endpoint: mean survival time, dose: 200.0 mg/kg/injection, schedule: Q04DX003 (ip), vehicle: saline",100 % of control
CC(C)OP(=O)(OCCO)C(Cl)Cl (stereo unspecified),T/C,"endpoint: mean survival time, dose: 100.0 mg/kg/injection, schedule: Q01DX001 (ip), vehicle: saline",97 % of control
same,T/C,"endpoint: mean survival time, dose: 200.0 mg/kg/injection, schedule: Q01DX001 (ip), vehicle: saline",94 % of control
same,T/C,"endpoint: mean survival time, dose: 400.0 mg/kg/injection, schedule: Q01DX001 (ip), vehicle: saline",96 % of control
O=C1OC(c2ccccc2)(c2ccccc2)c2cccc3cccc1c23,T/C,[1],93 % of control
same,T/C,"endpoint: mean survival time, dose: 400.0 mg/kg/injection, schedule: Q04DX003 (ip), vehicle: saline with Tween-80",86 % of control
OCC1OC(n2cnc3c2[nH]c(=S)n2ccnc32)C(O)C1O (stereo unspecified),T/C,"endpoint: mean survival time, dose: 12.5 mg/kg/injection, schedule: Q01DX005 (ip), vehicle: water",96 % of control
same,T/C,"endpoint: mean survival time, dose: 25.0 mg/kg/injection, schedule: Q01DX005 (ip), vehicle: water",101 % of control
same,T/C,"endpoint: mean survival time, dose: 50.0 mg/kg/injection, schedule: Q01DX005 (ip), vehicle: water",96 % of control
same,T/C,"endpoint: mean survival time, dose: 100.0 mg/kg/injection, schedule: Q01DX005 (ip), vehicle: water",101 % of control
same,T/C,"endpoint: mean survival time, dose: 200.0 mg/kg/injection, schedule: Q01DX005 (ip), vehicle: water",101 % of control
CCOC(=O)CC1(c2ccccc2)OC(=O)c2ccccc21 (stereo unspecified),T/C,"endpoint: mean survival time, dose: 100.0 mg/kg/injection, schedule: Q04DX002 (ip), vehicle: saline with Tween-80",102 % of control
same,T/C,"endpoint: mean survival time, dose: 200.0 mg/kg/injection, schedule: Q04DX002 (ip), vehicle: saline with Tween-80",87 % of control
same,T/C,"endpoint: mean survival time, dose: 400.0 mg/kg/injection, schedule: Q04DX002 (ip), vehicle: saline with Tween-80",87 % of control
CCCCN(CCCC)CC(O)c1cc(-c2cc(C(O)CN(CCCC)CCCC)c3ccccc3n2)nc2ccccc12 (stereo unspecified),T/C,[1],95 % of control
same,T/C,"endpoint: mean survival time, dose: 200.0 mg/kg/injection, schedule: Q04DX003 (ip), vehicle: saline with Tween-80",86 % of control
NC(N)=N/N=C\c1ccc(/C=N/N=C(N)N)cc1,T/C,"endpoint: mean survival time, dose: 3.0 mg/kg/injection, schedule: Q01DX010 (ip), vehicle: saline",102 % of control
same,T/C,"endpoint: mean survival time, dose: 5.0 mg/kg/injection, schedule: Q01DX010 (ip), vehicle: saline",106 % of control
same,T/C,"endpoint: mean survival time, dose: 8.0 mg/kg/injection, schedule: Q01DX010 (ip), vehicle: saline",110 % of control
same,T/C,"endpoint: mean survival time, dose: 12.0 mg/kg/injection, schedule: Q01DX010 (ip), vehicle: saline",112 % of control
CCCCCCCCCCCC(CCCC)CCCCCCCCCC (stereo unspecified),T/C,"endpoint: mean survival time, dose: 100.0 mg/kg/injection, schedule: Q01DX001 (ip), vehicle: saline sonified",96 % of control
same,T/C,"endpoint: mean survival time, dose: 200.0 mg/kg/injection, schedule: Q01DX001 (ip), vehicle: saline sonified",102 % of control
same,T/C,"endpoint: mean survival time, dose: 400.0 mg/kg/injection, schedule: Q01DX001 (ip), vehicle: saline sonified",108 % of control
CC(=O)[O][Hg][CH]1CCCCC1O (stereo unspecified),T/C,"endpoint: mean survival time, dose: 3.13 mg/kg/injection, schedule: Q01DX009 (ip), vehicle: saline + alcohol",98 % of control
same,T/C,"endpoint: mean survival time, dose: 6.25 mg/kg/injection, schedule: Q01DX009 (ip), vehicle: saline + alcohol",108 % of control
CC1CC(O)C(NC(=O)NCCCl)C(O)C1 (stereo unspecified),T/C,"endpoint: mean survival time, dose: 100.0 mg/kg/injection, schedule: Q01DX001 (ip), vehicle: saline with Tween-80",102 % of control
same,T/C,"endpoint: mean survival time, dose: 200.0 mg/kg/injection, schedule: Q01DX001 (ip), vehicle: saline with Tween-80",102 % of control
same,T/C,"endpoint: mean survival time, dose: 400.0 mg/kg/injection, schedule: Q01DX001 (ip), vehicle: saline with Tween-80",110 % of control
C[n+]1c(-c2ccc(NC(=O)c3ccc(C(=O)Nc4ccc(-c5cn6ccccc6[n+]5C)cc4)cc3)cc2)cn2ccccc21,T/C,"endpoint: median survival time, dose: 5.4 mg/kg/injection, schedule: Q01DX005 (ip), vehicle: saline with Tween-80",200 % of control
same,T/C,"endpoint: median survival time, dose: 6.25 mg/kg/injection, schedule: Q01DX005 (ip), vehicle: saline with Tween-80",168 % of control
same,T/C,"endpoint: median survival time, dose: 9.0 mg/kg/injection, schedule: Q01DX005 (ip), vehicle: saline with Tween-80",211 % of control
same,T/C,"endpoint: median survival time, dose: 12.5 mg/kg/injection, schedule: Q01DX005 (ip), vehicle: saline with Tween-80",200 % of control
same,T/C,"endpoint: median survival time, dose: 15.0 mg/kg/injection, schedule: Q01DX005 (ip), vehicle: saline with Tween-80",352 % of control
same,T/C,"endpoint: median survival time, dose: 25.0 mg/kg/injection, schedule: Q01DX005 (ip), vehicle: saline with Tween-80",312 % of control and 341 % of control
same,T/C,"endpoint: median survival time, dose: 42.0 mg/kg/injection, schedule: Q01DX005 (ip), vehicle: saline with Tween-80",152 % of control
same,T/C,"endpoint: median survival time, dose: 100.0 mg/kg/injection, schedule: Q01DX005 (ip), vehicle: saline with Tween-80",86 % of control
same,T/C,"endpoint: median survival time, dose: 116.0 mg/kg/injection, schedule: Q01DX005 (ip), vehicle: saline with Tween-80",109 % of control
CC(=O)OC1CCCCC1OC(C)=O (stereo unspecified),T/C,"endpoint: mean survival time, dose: 50.0 mg/kg/injection, schedule: Q01DX009 (ip), vehicle: saline with Tween-80",92 % of control
same,T/C,"endpoint: mean survival time, dose: 100.0 mg/kg/injection, schedule: Q01DX009 (ip), vehicle: saline with Tween-80",92 % of control
same,T/C,"endpoint: mean survival time, dose: 200.0 mg/kg/injection, schedule: Q01DX009 (ip), vehicle: saline with Tween-80",103 % of control
